Measurements as given in patent US20100280035A1, “SOLID PHARMACEUTICAL COMPOSITION COMPRISING 1-(4-CHLOROANILINO)-4-(4-PYRIDYLMETHYL)PHTHALAZINE AND A PH MODIFIER” (priority 2005, published 2010).

Test: Permeability of the Agent in the small intestine

permeability: good
SMILES: Clc1ccc(Nc2nnc(Cc3ccncc3)c3ccccc23)cc1.O=C(O)CCC(=O)O [Agent, 1-(4-chloroanilino)-4-(4-pyridylmethyl)phthalazine succinate]
